In US4424358A, “β-3-Amino nor-tropane compounds” (Delalande S.A., priority 1979, dated 1984):
Where two headings read alike, the source gives them in different places.

Key:
[1] = system: apomorphine straightening; experiment: antagonism to apomorphine straightening (neuroleptic activity); assay type: in vivo, mice; details: Mus musculus, ip, read-out: Apomorphine straightening ED 50
[2] = acute toxicity by intraperitoneal administration; details: mouse, in vivo, ip; mice, i.p., estimated lethal dose (method of Miller); read-out: Acute toxicity LD 50
Excerpt: Acute toxicity was studied on mice by intraperitoneal administration, and the estimated lethal doses in accordance with the method described by MILLER and THINTER Proc. Soc. Exper.

| Structure (SMILES) | ED50 [1] | LD50 [2] | ED50 ([1]; mice, i.p.) |
| --- | --- | --- | --- |
| CCOc1nc(N)ncc1C(=O)N[C@@H]1C[C@H]2CC[C@@H](C1)N2Cc1ccccc1 [Compound 3] | 0.04 mg/kg | 300 mg/kg | – |
| COc1nc(N)ncc1C(=O)N[C@@H]1C[C@H]2CC[C@@H](C1)N2Cc1ccc(Cl)cc1 [Compound 8, β-3-[5-(2-amino 4-methoxypyrimidinyl)carbonyl]amino N-parachlorobenzyl nor-tropane] | 0.035 mg/kg | 220 mg/kg | – |
| COc1ccc(CN2[C@@H]3CC[C@H]2C[C@H](NC(=O)c2cnc(N)nc2OC)C3)cc1 [Compound 9] | 0.01 mg/kg | 240 mg/kg | – |
| COc1nc(N)ncc1C(=O)N[C@@H]1C[C@H]2CC[C@@H](C1)N2Cc1ccc(C)cc1 [Compound 10] | 0.035 mg/kg | 325 mg/kg | – |
| COc1cc(N)c(Br)cc1C(=O)N[C@@H]1C[C@H]2CC[C@@H](C1)N2Cc1ccccc1 [Compound 16] | 0.01 mg/kg | 240 mg/kg | – |
| COc1cc(N)c(Br)cc1C(=O)N[C@@H]1C[C@H]2CC[C@@H](C1)N2Cc1ccc(F)cc1 [Compound 19, β-3-[(4-amino 5-bromo 2-methoxy)benzoyl]amino N-parafluorobenzyl nor-tropane, chlorhydrate] | 0.01 mg/kg | 90 mg/kg | – |
| COc1cc(N)c(Br)cc1C(=O)N[C@@H]1C[C@H]2CC[C@@H](C1)N2Cc1ccc(Br)cc1 [Compound 20] | 0.034 mg/kg | > 400 mg/kg | – |
| COc1cc(N)c(Br)cc1C(=O)N[C@@H]1C[C@H]2CC[C@@H](C1)N2Cc1cccc(C(F)(F)F)c1 [Compound 21] | 0.07 mg/kg | 85 mg/kg | – |
| COc1cc(N)c(Br)cc1C(=O)N[C@@H]1C[C@H]2CC[C@@H](C1)N2Cc1ccc(Cl)cc1 [Compound 22] | 0.021 mg/kg | 140 mg/kg | – |
| COc1cc(N)c(Br)cc1C(=O)N[C@@H]1C[C@H]2CC[C@@H](C1)N2Cc1ccc(C)cc1 [Compound 23] | 0.07 mg/kg | > 400 mg/kg | – |
| COc1cc(N)c(Br)cc1C(=O)N[C@@H]1C[C@H]2CC[C@@H](C1)N2Cc1cccc(C)c1 [Compound 24] | 0.05 mg/kg | 160 mg/kg | – |
| COc1cc(N)c(Br)cc1C(=O)N[C@@H]1C[C@H]2CC[C@@H](C1)N2Cc1cccc(Cl)c1 [Compound 25] | 0.03 mg/kg | 100 mg/kg | – |
| COc1cc(N)c(Br)cc1C(=O)N[C@@H]1C[C@H]2CC[C@@H](C1)N2Cc1cccc(F)c1 [Compound 26] | 0.011 mg/kg | 140 mg/kg | – |
| COc1cc(N)c(Br)cc1C(=O)N[C@@H]1C[C@H]2CC[C@@H](C1)N2Cc1cccc(Br)c1 [Compound 27] | 0.034 mg/kg | > 400 mg/kg | – |
| COc1cc(N)c(Br)cc1C(=O)N[C@@H]1C[C@H]2CC[C@@H](C1)N2Cc1ccc(Cl)c(Cl)c1 [Compound 28] | 0.12 mg/kg | > 400 mg/kg | – |
| COc1cc(N)c(Br)cc1C(=O)N[C@@H]1C[C@H]2CC[C@@H](C1)N2Cc1cccs1 [Compound 29] | 0.012 mg/kg | 180 mg/kg | – |
| CCc1ccc(CN2[C@@H]3CC[C@H]2C[C@H](NC(=O)c2cc(Br)c(N)cc2OC)C3)cc1 [Compound 30] | 0.3 mg/kg | 230 mg/kg | – |
| COc1cc(N)c(Br)cc1C(=O)N[C@@H]1C[C@H]2CC[C@@H](C1)N2Cc1ccsc1 [Compound 32] | 0.05 mg/kg | 140 mg/kg | – |
| COc1cc(N)c(Br)cc1C(=O)N[C@@H]1C[C@H]2CC[C@@H](C1)N2Cc1ccc(C(F)(F)F)cc1 [Compound 33] | 0.19 mg/kg | > 400 mg/kg | – |
| COc1cc(N)c(Br)cc1C(=O)N[C@@H]1C[C@H]2CC[C@@H](C1)N2CC1CCCCC1 [Compound 35] | 0.07 mg/kg | 80 mg/kg | – |
| COc1nc(N)ncc1C(=O)N[C@@H]1C[C@H]2CC[C@@H](C1)N2Cc1ccc(Br)cc1 [Compound 37] | 0.16 mg/kg | 170 mg/kg | – |

| Structure (SMILES) | ED50 [1] | LD50 [2] | ED50 ([1]; mice, i.p.) |
| --- | --- | --- | --- |
| COc1cc(NC(C)=O)c(Br)cc1C(=O)N[C@@H]1C[C@H]2CC[C@@H](C1)N2Cc1ccccc1 [Compound 40] | 0.05 mg/kg | 130 mg/kg | – |
| COc1cc(NC(=O)C(F)(F)F)c(Br)cc1C(=O)N[C@@H]1C[C@H]2CC[C@@H](C1)N2Cc1ccccc1 [Compound 41] | 0.03 mg/kg | 225 mg/kg | – |
| COc1cc(NC(C)=O)c(Cl)cc1C(=O)N[C@@H]1C[C@H]2CC[C@@H](C1)N2Cc1ccccc1 [Compound 42] | 0.05 mg/kg | 61 mg/kg | – |
| COc1cc(NC(=O)C(F)(F)F)c(Cl)cc1C(=O)N[C@@H]1C[C@H]2CC[C@@H](C1)N2Cc1ccccc1 [Compound 43] | 0.03 mg/kg | 120 mg/kg | – |
| COc1ccc([N+](=O)[O-])cc1C(=O)N[C@@H]1C[C@H]2CC[C@@H](C1)N2Cc1ccccc1 [Compound 48] | 0.21 mg/kg | 310 mg/kg | – |
| COc1ccc(F)cc1C(=O)N[C@@H]1C[C@H]2CC[C@@H](C1)N2Cc1ccccc1 [Compound 49] | 0.08 mg/kg | 120 mg/kg | – |
| COc1ccc(O)cc1C(=O)N[C@@H]1C[C@H]2CC[C@@H](C1)N2Cc1ccccc1 [Compound 51] | 0.03 mg/kg | 140 mg/kg | – |
| COc1cc(OC)c(C(=O)N[C@@H]2C[C@H]3CC[C@@H](C2)N3Cc2ccccc2)cc1OC [Compound 60] | 0.027 mg/kg | 75 mg/kg | – |
| COc1ccc(C(=O)N[C@@H]2C[C@H]3CC[C@@H](C2)N3Cc2ccccc2)c(OC)c1OC [Compound 61] | 0.02 mg/kg | 80 mg/kg | – |
| COc1ccccc1C(=O)N[C@@H]1C[C@H]2CC[C@@H](C1)N2Cc1ccccc1 [Compound 62] | 0.04 mg/kg | 60 mg/kg | – |
| COc1cccc(C(=O)N[C@@H]2C[C@H]3CC[C@@H](C2)N3Cc2ccccc2)c1OC [Compound 64] | 0.008 mg/kg | 83 mg/kg | – |
| COc1cc(N)ccc1C(=O)N[C@@H]1C[C@H]2CC[C@@H](C1)N2Cc1ccccc1 [Compound 67] | 0.038 mg/kg | 100 mg/kg | – |
| COc1ccc(C(=O)N[C@@H]2C[C@H]3CC[C@@H](C2)N3Cc2ccccc2)c(OC)c1 [Compound 68] | 0.02 mg/kg | 47 mg/kg | – |
| COc1cc(N)c(Cl)cc1C(=O)N[C@@H]1C[C@H]2CC[C@@H](C1)N2Cc1ccco1 [Compound 71] | 0.11 mg/kg | 120 mg/kg | – |
| COc1cc(N)c(Cl)cc1C(=O)N[C@@H]1C[C@H]2CC[C@@H](C1)N2Cc1ccsc1 [Compound 72] | 0.04 mg/kg | 110 mg/kg | – |
| COc1cc(N)c(Cl)cc1C(=O)N[C@@H]1C[C@H]2CC[C@@H](C1)N2Cc1cccs1 [Compound 73] | 0.02 mg/kg | 170 mg/kg | – |
| COc1c(C(=O)N[C@@H]2C[C@H]3CC[C@@H](C2)N3Cc2ccccc2)cc(Br)c(N)c1Br [Compound 74] | 0.035 mg/kg | 250 mg/kg | – |
| CCOc1cc(N)c(Br)cc1C(=O)N[C@@H]1C[C@H]2CC[C@@H](C1)N2Cc1ccccc1 [Compound 75] | 0.021 mg/kg | > 400 mg/kg | – |
| COc1cc(OC)cc(C(=O)N[C@@H]2C[C@H]3CC[C@@H](C2)N3Cc2ccccc2)c1 [Compound 83] | 0.031 mg/kg | 140 mg/kg | – |
| CCN1CCCC1CNC(=O)c1cc(S(N)(=O)=O)ccc1OC (stereo not drawn) [SULPIRIDE, reference compound] | – | – | 37 mg/kg |
